Earlier results, collected in patent publication US20250319024A1, “TARGETED NANOPARTICLES AND THEIR USES RELATED TO INFECTIOUS DISEASE” (priority 2021, published 2025).
Like-named read-outs stand apart in the source and are kept apart here.

Test system: RIF sensitive strains / resistant strains
Details: cited from earlier work

SMILES: CO[C@H]1/C=C/O[C@@]2(C)Oc3c(C)c(O)c4c(O)c(c(/C=N/N5CCN(C)CC5)c(O)c4c3C2=O)NC(=O)/C(C)=C\C=C\[C@H](C)[C@H](O)[C@@H](C)[C@@H](O)[C@@H](C)[C@H](OC(C)=O)[C@@H]1C [free RIF, rifampin]
- ED95 (RIF sensitive strains): below 0.5 μg/mL
- ED95 (resistant strains): above 2 μg/mL
